Measured values published in US20220125791A1, “NOVEL DEVICES” (INTRA-CELLULAR THERAPIES, INC., priority 2019, published 2022).
Like-named read-outs stand apart in the source and are kept apart here.

Assay: Compound 1 in plasma and ocular tissue following topical administration
Assay type: in vivo, male hypertensive New Zealand White Rabbit
Details: for AUC(0-t): male, New Zealand White, rabbit, topical or ocular, topical administration, 5% (2-Hydroxypropyl)-β-cyclodextrin in PBS pH 7.4, LC-MS/MS
Method: The goal of this study was to determine the presence/absence of Compound 1 in male hypertensive New Zealand White Rabbit plasma and ocular tissue following a topical administration. For the study, Compound 1 was formulated with 5% (2-Hydroxypropyl)-β-cyclodextrin in phosphate-buffered saline pH 7.4 at 60 μg/eye. Plasma, Cornea, Conjunctiva, Aqueous Humor (AH), and Iris Ciliary Body (ICB) samples were collected for analysis of the concentrations of Compound 1 using LC-MS/MS methods.

AUC(0-t) (60 μg/eye, aqueous humor, read-out: AUC0-24hr in the aqueous humor): 866 ng·h/mL
AUC(0-t) (60 μg/eye, plasma, read-out: AUC0-24hr in the plasma): 46.3 ng·h/mL
availability in ocular tissue (ocular tissue upon topical administration, 60 μg/eye (FIG. 1)): rapid availability
presence in plasma (plasma, 1 hour after topical administration, 60 μg/eye): present
Structure (SMILES): CN1C(=O)c2c(nn(Cc3ccc(-c4ccccn4)cc3)c2Nc2ccccc2)N2C1=N[C@@H]1CCC[C@@H]12 [Compound 1]
